Data taken from ChEMBL document CHEMBL4138122, “Azaphenothiazines - promising phenothiazine derivatives. An insight into nomenclature, synthesis, structure elucidation and biological properties” (Eur J Med Chem, 2017).
Values after ≈ are worked out from the molar mass of the structure shown.

Assays:
[1] = Inhibition of soybean 15-lipoxygenase; parameters: species or system Glycine max
[2] = Inhibition of LTB4 formation in rat polymorphonuclear leukocytes preincubated for 2 mins followed by A-23187 addition after 4 mins; format: functional, cell-based
Mus musculus [3] = assay: Anti-inflammatory activity in mouse IL-1-induced paw inflammation model assessed as inhibition of neutrophil infiltration at 10 mg/kg, po; format: functional; settings: for inhibition in vivo at 10 mg/kg: Mus musculus, po
[4] = molecular target: Intercellular adhesion molecule 1 (Homo sapiens, UniProt P05362); assay: Inhibition of ICAM1 (unknown origin)
Chain of Intercellular adhesion molecule 1 (P05362 whole entry): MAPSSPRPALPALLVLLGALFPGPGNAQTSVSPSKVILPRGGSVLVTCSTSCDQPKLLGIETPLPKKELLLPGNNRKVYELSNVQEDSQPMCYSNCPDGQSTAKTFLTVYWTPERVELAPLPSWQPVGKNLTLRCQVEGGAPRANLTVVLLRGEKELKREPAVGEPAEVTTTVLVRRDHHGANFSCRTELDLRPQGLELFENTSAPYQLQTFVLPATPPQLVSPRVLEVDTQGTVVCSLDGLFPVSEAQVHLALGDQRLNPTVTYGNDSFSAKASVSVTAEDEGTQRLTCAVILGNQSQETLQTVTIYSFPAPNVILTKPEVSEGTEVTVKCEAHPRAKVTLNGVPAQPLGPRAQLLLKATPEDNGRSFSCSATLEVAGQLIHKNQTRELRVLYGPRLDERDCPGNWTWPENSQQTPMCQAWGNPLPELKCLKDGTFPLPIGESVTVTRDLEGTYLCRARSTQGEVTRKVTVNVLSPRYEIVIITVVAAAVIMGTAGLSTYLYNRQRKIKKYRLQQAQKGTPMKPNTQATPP

MCF7 = assay: Cytotoxicity against human MCF7 cells incubated for 72 hrs by WST1 dye based assay; format: functional, cell-based; settings: MCF7, 72 h
Rattus norvegicus = assay: Analgesic activity in Sprague-Dawley rat assessed as reduction in phenylbenzoquinone-induced number of writhes at 20 mg/kg, sc incubated for 60 mins; format: functional; parameters: scale not given: the % may be the effect or the level left
Lipoxygenase = Lipoxygenase (Glycine max, UniProt Q39829); assay: Inhibition of soybean lipoxygenase using linoleic acid as substrate preincubated for 5 mins followed by substrate addition measuredf after 7 mins by solution A/B solution based assay
[5] = molecular target: Cholinesterase (Equus caballus) (UniProt P81908); assay: Inhibition of horse serum BChE at 10 uM
Chain of Cholinesterase (Equus caballus) (P81908 whole entry): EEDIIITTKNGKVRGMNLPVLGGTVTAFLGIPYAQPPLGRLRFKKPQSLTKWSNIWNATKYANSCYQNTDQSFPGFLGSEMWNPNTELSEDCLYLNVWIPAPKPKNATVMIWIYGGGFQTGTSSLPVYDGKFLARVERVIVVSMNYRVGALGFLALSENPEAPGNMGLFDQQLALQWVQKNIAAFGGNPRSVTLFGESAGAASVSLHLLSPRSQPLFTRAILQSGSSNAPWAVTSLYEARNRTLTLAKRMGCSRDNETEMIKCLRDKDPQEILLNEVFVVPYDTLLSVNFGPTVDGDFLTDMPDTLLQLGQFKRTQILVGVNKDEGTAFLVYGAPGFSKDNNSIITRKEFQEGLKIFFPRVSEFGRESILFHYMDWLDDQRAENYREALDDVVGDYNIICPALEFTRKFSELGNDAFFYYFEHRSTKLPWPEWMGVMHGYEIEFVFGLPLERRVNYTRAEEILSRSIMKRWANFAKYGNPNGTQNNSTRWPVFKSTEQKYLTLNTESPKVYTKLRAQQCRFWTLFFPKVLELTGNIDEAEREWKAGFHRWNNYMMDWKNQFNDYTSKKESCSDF

Cholinesterase = Cholinesterase (Equus caballus, UniProt P81908); assay: Inhibition of horse serum BChE
Chain of Cholinesterase (P81908 whole entry): as above

Mus musculus [6] = assay: Anti-inflammatory activity in IL1-induced paw inflammation Balb/c mouse model assessed as inhibition of neutrophil migration at 10 mg/kg, po, pretreated for 30 mins followed by IL1 challenge measured after 2 hrs by spectrophotometric method; format: functional
Enterococcus faecalis = assay: Antibacterial activity against Enterococcus faecalis; format: functional
Escherichia coli = assay: Antibacterial activity against Escherichia coli; format: functional; settings: Escherichia coli
Mus musculus [7] = assay: Neuropharmacological activity in iv dosed Charles River Swiss mouse assessed as minimum dose at which reactive signs were observed in half of mouse tested; format: functional
UO-31 = assay: Growth inhibition of human UO31 cells at 10 uM; format: functional; settings: read-out: GI
Mus musculus [8] = assay: Analgesic activity in mouse assessed as reduction in phenylquinone-induced number of writhes at 20 mg/kg, ip; format: functional; parameters: scale not given: the % may be the effect or the level left
Candida albicans = assay: microbe, parasite or virus in culture
Description: Antimicrobial activity against Candida albicans

PBMC [9] = assay: Inhibition of PHA-induced cell proliferation of human PBMC at 50 ug/ml incubated for 4 days by MTT method; format: functional; settings: 96 h
PBMC [10] = assay: Cytotoxicity in human PBMCs assessed as reduction in cel viability at 50 ug/ml; format: cell-based
Staphylococcus aureus = assay: Antibacterial activity against Staphylococcus aureus; format: functional; settings: Staphylococcus aureus; read-out: MIC
HFF-1 = assay: Cytotoxicity against human HFF1 cells incubated for 72 hrs by WST1 dye based assay; format: cell-based; settings: HFF-1, 72 h
PBMC [11] = assay: Inhibition of LPS-induced TNFalpha profduction in human PBMC at 5 ug/ml; format: functional
Bacillus cereus = assay: Antibacterial activity against Bacillus cereus; format: functional, organism-based
[12] = Inhibition of lipoxygenase in rat peritoneal cavity resident cells
Bacillus subtilis = assay: Antibacterial activity against Bacillus subtilis; format: functional; settings: Bacillus subtilis
[13] = Displacement of [3H]-diazepam from benzodiazepine receptor in rat brain membranes after 30 mins; format: cell membranes, Membrane

c1ccc2c(c1)Nc1nnc(N3CCCCC3)cc1S2
IC50 [1]: > 287000 nM

COc1ccc2c(c1)Sc1nccnc1N2
IC50 [2]: 0.05 to 1 µg/mL (≈ 0.216 to 4.32 µM)

O=C(O)CC1C2CCCC1CN(Cc1ccc3c(c1)Nc1nccnc1S3)C2 (stereo in doubt; 64d)
inhibition (INH) (Mus musculus [3]): 80.6%
IC50 [4]: 2300 nM

O=C(O)CC1CC2(CCN(Cc3ccc4c(c3)Nc3nccnc3S4)CC2)C1
inhibition in vivo at 10 mg/kg (Mus musculus [3]): 88.8%
IC50 [4]: 420 to 1000 nM

C#CCN1c2cccnc2Sc2cccnc21
IC50 (MCF7): 3.9 µg/mL (≈ 16.3 µM)

O=C(O)C(=O)O.c1ccc2c(c1)Sc1cnccc1N2CCCN1CCOCC1
Activity (Rattus norvegicus): 59 - 86%

CN1CCN(c2ncc3c(n2)Sc2ccccc2N3)CC1
IC50 (Lipoxygenase): 87700 nM

CSc1ccc2c(c1)Sc1cc3ccccc3nc1N2CCC1CCCCN1C (stereo not drawn)
inhibition [5]: 99.9%
IC50 (Cholinesterase): 24.4 nM

CN1CCN(c2cc3c(nn2)Nc2ccccc2S3)CC1
IC50 [1]: > 287000 nM

O=S(=O)(NC1CCN(Cc2ccc3c(c2)Nc2nccnc2S3)CC1)N1CCOCC1
inhibition in vivo at 10 mg/kg (Mus musculus [6]): 66.1%
IC50 [4]: 270 to 1400 nM

C[n+]1cc2c(c3ccccc31)Nc1ccccc1S2.[Cl-]
MIC (Enterococcus faecalis): 6 µg/mL
MIC (Escherichia coli): 7 µg/mL

CC(C)N(CCSC(=O)N1c2cc(F)ccc2Sc2cccnc21)C(C)C
MED50 (Mus musculus [7]): 0.058 to 1.8 mg/kg

CS(=O)(=O)N1CCN(Cc2ccc3c(c2)Nc2nccnc2S3)CC1
inhibition in vivo at 10 mg/kg (Mus musculus [6]): 53.4%
IC50 [4]: 270 to 1400 nM

O=C(O)c1ccc(CC2CCN(Cc3ccc4c(c3)Nc3nccnc3S4)CC2)cc1
inhibition in vivo at 10 mg/kg (Mus musculus [3]): 88%
IC50 [4]: 420 to 1000 nM

COc1ccc2c(c1Cl)Sc1nccnc1N2C
IC50 [2]: 1 to 5 µg/mL (≈ 3.57 to 17.9 µM)

CN1c2ccccc2Sc2nccnc21
IC50 [2]: 1 to 5 µg/mL (≈ 4.65 to 23.2 µM)

CN(C)CCN1c2ccccc2Sc2cnccc21.O=C(O)C(=O)O
Activity (Rattus norvegicus): 59 - 86%

c1ccc(CN2c3nc4ccccc4cc3Sc3cc4ccccc4nc32)cc1
inhibition of growth at 10 µM (UO-31): 57 to 73%

CN(C)CCSc1nnc2c3c(cnn12)Sc1ccccc1N3
Activity (Mus musculus [8]): 54 - 65%

CS(=O)(=O)NCCC1CCN(Cc2ccc3c(c2)Nc2nccnc2S3)CC1
inhibition in vivo at 10 mg/kg (Mus musculus [6]): 83.4 to 89.7%
IC50 [4]: 270 to 1400 nM

COc1ccc2c(n1)Sc1c3c(c4ccccc4c1=N2)=Nc1ccc(OC)nc1S3
MIC (Escherichia coli): 144 µg/mL (≈ 336 µM)
MIC (Candida albicans): 72.4 µg/mL (≈ 168 µM)

O=C(NCCCl)NCCCN1c2ccc(Cl)cc2Sc2cc3ccccc3nc21
inhibition [5]: 80%

C[n+]1cc2c(c3ccccc31)Nc1ccc(Cl)cc1S2.[Cl-]
MIC (Enterococcus faecalis): 4 µg/mL
MIC (Escherichia coli): 6 µg/mL

c1cnc2c(c1)Sc1ccncc1N2CCN1CCOCC1
inhibition at 50 µg/mL (PBMC [9]): 60%
Activity (PBMC [10]): <= 22%

c1cnc2c(c1)Sc1ccncc1N2
inhibition at 50 µg/mL (PBMC [9]): > 70%
Activity (PBMC [10]): <= 22%

CN(C)CCCN1c2ccccc2Sc2cnccc21.O=C(O)C(=O)O
Activity (Rattus norvegicus): 59 - 86%

C[n+]1cc2c(c3ccccc31)Nc1ccc(Br)cc1S2.[Cl-]
MIC (Enterococcus faecalis): 9 µg/mL
MIC (Staphylococcus aureus): 26 µg/mL

CS(=O)(=O)NC1CCN(Cc2ccc3c(c2)Nc2nccnc2S3)CC1
inhibition in vivo at 10 mg/kg (Mus musculus [6]): 83.4 to 89.7%
IC50 [4]: 270 to 1400 nM

O=[N+]([O-])c1cnccc1N1c2cccnc2Sc2cccnc21
IC50 (MCF7): 4.6 µg/mL (≈ 14.2 µM)
IC50 (HFF-1): ≥ 50 µg/mL

C#CCN1c2cnccc2Sc2cccnc21
inhibition at 5 µg/mL (PBMC [11]): > 85%
Activity (PBMC [10]): <= 22%

Nc1nc(O)c2c(n1)N=c1c(c3c(c4ccccc14)=Nc1ccccc1S3)S2
MIC (Candida albicans): 91.2 µg/mL (≈ 227 µM)
MIC (Staphylococcus aureus): 79.4 µg/mL (≈ 198 µM)

CC(C)N(CCSC(=O)N1c2ccccc2Sc2cc(Cl)cnc21)C(C)C
MED50 (Mus musculus [7]): 0.058 to 1.8 mg/kg

c1ccc2c(c1)Nc1nnc(N3CCCC3)cc1S2
IC50 [1]: > 287000 nM

C=CCN1c2cnccc2Sc2cccnc21
inhibition at 5 µg/mL (PBMC [11]): > 85%
Activity (PBMC [10]): <= 22%

O=[N+]([O-])c1ccc(N2c3nc4ccccc4cc3Sc3cc4ccccc4nc32)cc1
inhibition of growth at 10 µM (UO-31): 57 to 73%

COc1ccc2c(n1)Sc1c3c(c4ccccc4c1=N2)=Nc1cc([N+](=O)[O-])ccc1O3
MIC (Bacillus cereus): 87.4 µg/mL (≈ 204 µM)
MIC (Escherichia coli): 87.1 to 97.1 µg/mL (≈ 203 to 227 µM)

CSc1nnc2c3c(cnn12)Sc1ccccc1N3
Activity (Mus musculus [8]): 54 - 65%

Cn1c(=O)[nH]c2c(c1=O)Nc1ccccc1S2
IC50 [12]: 1900 nM

CCN(CC)CCN1c2cnccc2Sc2cccnc21
inhibition at 50 µg/mL (PBMC [9]): 60%
Activity (PBMC [10]): <= 22%

O=C(O)C1CC2(CCN(Cc3ccc4c(c3)Nc3nccnc3S4)CC2)C1
inhibition in vivo at 10 mg/kg (Mus musculus [3]): 82.8%
IC50 [4]: 420 to 1000 nM

O=C(NCCCl)NCCCN1c2nc3ccccc3cc2Sc2cc3ccccc3nc21
inhibition [5]: 83.2%
IC50 (Cholinesterase): 2900 nM

CC(CN(C)C)CN1c2cnccc2Sc2cccnc21 (stereo not drawn)
inhibition at 50 µg/mL (PBMC [9]): 60%
inhibition at 5 µg/mL (PBMC [11]): > 85%
Activity (PBMC [10]): <= 22%

Cc1nc(N2CCN(C)CC2)nc2c1Nc1ccccc1S2
IC50 (Lipoxygenase): 21200 nM

CN(C)CCCN1c2cnccc2Sc2cccnc21
inhibition at 50 µg/mL (PBMC [9]): > 70%
inhibition at 5 µg/mL (PBMC [11]): > 85%
Activity (PBMC [10]): <= 22%

Cc1ccc2c(c1)Sc1c[n+](C)c3ccccc3c1N2.[Cl-]
MIC (Enterococcus faecalis): 11 µg/mL

c1ccc2c(c1)Nc1nnc(N3CCOCC3)cc1S2
IC50 [1]: > 287000 nM

CN1CCCCC1CCN1c2ccc(Cl)cc2Sc2cc3ccccc3nc21 (stereo not drawn)
inhibition [5]: 99.9%
IC50 (Cholinesterase): 122 nM

CCN1CCN(c2nc(C)c3c(n2)Sc2ccccc2N3)CC1
IC50 (Lipoxygenase): 40700 nM

O=C(O)CC1C2CCC1CN(Cc1ccc3c(c1)Nc1nccnc1S3)C2 (stereo not drawn)
inhibition in vivo at 10 mg/kg (Mus musculus [3]): 83.2%

O=[N+]([O-])c1ccc2c(c1)N=c1c(c3c(c4ccccc14)=Nc1ccccc1S3)O2
MIC (Bacillus subtilis): 45.7 µg/mL (≈ 115 µM)
MIC (Candida albicans): 100 µg/mL (≈ 252 µM)

Cc1ncc2c(n1)N=c1c(c3c(c4ccccc14)=Nc1cc([N+](=O)[O-])ccc1O3)S2
MIC (Bacillus cereus): 87.1 µg/mL (≈ 211 µM)
MIC (Escherichia coli): 87.1 to 97.1 µg/mL (≈ 211 to 235 µM)

CN1CCCCC1CCN1c2nc3ccccc3cc2Sc2cc3ccccc3nc21 (stereo not drawn)
inhibition [5]: 99.8%
IC50 (Cholinesterase): 11.8 nM

CSc1ccc2c(c1)N(C(=O)SCCN(C(C)C)C(C)C)c1ncccc1S2
MED50 (Mus musculus [7]): 0.058 to 1.8 mg/kg

O=C(O)C(=O)O.c1ccc2c(c1)Sc1cnccc1N2CCCN1CCCCC1
Activity (Rattus norvegicus): 59 - 86%

CC(C)N(CCSC(=O)N1c2cc(C(F)(F)F)ccc2Sc2cccnc21)C(C)C
MED50 (Mus musculus [7]): 0.058 to 1.8 mg/kg

c1cnc2c(c1)Sc1ccncc1N2CCN1CCCC1
inhibition at 5 µg/mL (PBMC [11]): > 85%
Activity (PBMC [10]): <= 22%

CS(=O)(=O)NCC1CCN(Cc2ccc3c(c2)Nc2nccnc2S3)CC1
inhibition in vivo at 10 mg/kg (Mus musculus [6]): 77.6%
IC50 [4]: 270 to 1400 nM

O=c1[nH]c2c(c(=O)[nH]1)Nc1ccccc1S2 [PYRIMIDOBENZOTHIAZINE]
IC50 [12]: 5300 nM

CC(C)N(CCSC(=O)N1c2ccccc2Sc2cccnc21)C(C)C
MED50 (Mus musculus [7]): 0.058 to 1.8 mg/kg

CN1CCN(Cc2nnc3c4c(cnn23)Sc2ccccc2N4)CC1
Activity (Mus musculus [8]): 54 - 65%

COc1ccc2c(n1)Sc1c3c(c4ccccc4c1=N2)=Nc1c(N)ncnc1O3
MIC (Bacillus cereus): 77.1 µg/mL (≈ 193 µM)
MIC (Escherichia coli): 87.1 to 97.1 µg/mL (≈ 218 to 242 µM)

CN1CCC2=C(C1)Sc1ccccc1N2CCCN1CCOCC1
Activity (Rattus norvegicus): 93%

CC(=O)NCCCN1c2cnccc2Sc2cccnc21
inhibition at 50 µg/mL (PBMC [9]): 60%
Activity (PBMC [10]): <= 22%

O=C(O)C(=O)O.c1ccc2c(c1)Sc1cnccc1N2CCCN1CCCC1
Activity (Rattus norvegicus): 59 - 86%

CCN(CC)CCSc1nnc2c3c(cnn12)Sc1ccccc1N3
Activity (Mus musculus [8]): 54 - 65%

N#Cc1c(O)ncc2c1Nc1ccc(Cl)cc1S2
IC50 [13]: 310 to 910 nM

CN1CCN(CC#CCN2c3cccnc3Sc3cccnc32)CC1
IC50 (MCF7): 7.5 µg/mL (≈ 21.3 µM)

c1ccc(CN2c3cnccc3Sc3cccnc32)cc1
inhibition at 5 µg/mL (PBMC [11]): > 85%
Activity (PBMC [10]): <= 22%
